Experimental data published in article PMC7061854, “Population Pharmacokinetics of Caspofungin and Dosing Optimization in Children With Allogeneic Hematopoietic Stem Cell Transplantation” (Frontiers in Pharmacology, 2020).
≈ marks a conversion by molar mass, not a printed value. Read-outs that look alike come from different tables or passages of the source.

Columns and labels:
[1] = clinical; assay type: in vivo, human; settings: for AUC(0-t) / clearance: human, in vivo, iv; for AUC(0-t): median ± standard deviation, read-out: AUC24
Experimental: A prospective, open-label pharmacokinetic study of caspofungin was performed at Wuhan Children's Hospital, Hubei Province. All designed procedures conformed to the legal requirements and the ethics committee of Wuhan Children's Hospital approved this study.
(§1) Caspofungin has been approved for use in patients with IFI that requiring prevention treatment, especially for patients undergoing allo-HSCT. In total, 48 patients, received allo-HSCT, fulfilled the enrollment criteria and provided informed in the model building group between July 2017 and March 2019. They received caspofungin as a 1-h intravenous infusion on the basis of body surface area (BSA) with 50 mg/m^2 maintenance dose daily followed by 70 mg/m^2 loading dose on day 1.
We performed an opportunistic sampling strategy when a steady-state caspofungin concentration had been achieved. Plasma was placed on ice and centrifuged (15,000 rpm for 5 min at +4°C) immediately and then stored at −80°C prior to analysis. Then we recorded the dosing and infusion time as well as sampling time prospectively.
Caspofungin concentrations were detected by a high-performance liquid chromatography method (Agilent Technologies Inc., 1260 infinity) with ultraviolet (UV) performed on detection by fluorescence. The excitation wavelength was 220 nm, the column temperature was 30 °C, and the pump flow rate was 0.8 ml/min. A solution of 42% acetonitrile was used as the mobile phase. We employed 0.5 ml of serum loaded on solid-phase extraction column (Agela Technologies, Cleanert ODS C18, 200 mg/3 ml) and then eluted with 60% acetonitrile. An Innoval C18 column (Agela Technologies, 10 μm, 4.6 × 250 mm) was used for separation. The calibration curve ranged from 0.6 to 20 mg/L. The inter- and intra-assay coefficients of variation of controls were all less than 5%. The lower limit of quantification (LLOQ) was 0.6 mg/L.
The PopPK study was performed by applying the non-linear mixed-effect modeling program Phoenix NLME (Version 8.1, Pharsight Corporation) and R program (Version 3.5.1, http://www.r-project.org/).
We tried to describe the pharmacokinetic process of caspofungin in vivo by using the one- or two-compartment models. The scale model and exponential model were adopted for intra-individual variation and inter-individual variation respectively. A forward and backward selection process was used for covariate analysis. The effects of demographic characteristics including age, body weight (WT), height, BSA, biological parameters including uric acid (UA), serum cystatin C (Cys-C), estimated glomerular filtration rate (eGFR), alanine aminotransferase (ALT), aspartate aminotransferase (AST), and gama-glutamyltranspeptidase (gama-GT) that were investigated as potential covariates on PK parameters. eGFR was calculated according to the modified Schwarta formula ([Schwartz et al., 2009]). Mosteller formula was used to calculate the body surface area (BSA) as follows ([Yang et al., 2019]):
BSA(m^2)=[height(cm)×weight(kg)/3600]^1/2
During the forward selection step, the covariate causing the objective function value (OFV) decreased more than 3.84 (P < 0.05, χ2 distribution, df = 1), the covariate was included into the model, thereafter we tested the remaining covariates.
In this study, goodness-of-fit plots, bootstrap, visual predictive check (VPC), and normalized prediction distribution errors (NPDEs) were adopted to model validation. Bootstrap resampling 1,000 times in the modeling data, and the model was established with the sampling data set. We compared the similarity between bootstrap model parameters and the parameters in final model. VPC simulated 1,000 virtual data with the final model and analyze whether the 95% confidence interval (CI) of the simulated data contains the original data. NPDEs also adopted simulation technology and simulated 1,000 times based on the final model to investigated the distribution of the standard error and perform the normal distribution test.

[2] = system: C. parapsilosis; assay: MIC of the isolate cultured from bronchoalveolar lavage fluid; assay type: cell-based, Candida parapsilosis; settings: isolate of one failed prophylaxis case
Experimental: In this study, 48 patients received caspofungin (loading dose of 70 mg/m^2 followed by 50 mg/m^2) as prophylaxis for fungal infections for a period of HSCT. The diagnosis of IFI mainly relied on a chest computed tomography (CT), clinical symptoms, blood culture, G test, and GM test. Patients were considered a probable IFI case with a chest CT scan positive for a halo or air crescent sign and large mass flocculent shadow. Routine blood culture, as long as the patients who receive bronchoscopy are all sent to receive bronchoalveolar lavage fluid culture meanwhile high throughput sequencing to find the pathogenic bacteria. […] The culture of bronchoalveolar lavage fluid was negative in three cases for consecutive two times and positive for C. parapsilosis in one case that was identified as C. parapsilosis infection (MIC = 0.5 mg/L). The median ± standard deviation of AUC24 in successful and failed cases group are 394.93 ± 91.14 mg·h/L and 352.08 ± 24.43 mg·h/L (t = 0.929, P = 0.358) at the loading dose, 300.37 ± 88.3 mg·h/L and 247.71 ± 33.67 mg·h/L (t = 1.175, P = 0.246) at the maintenance dose respectively. […] They were much lower than fungicidal target AUC24/MIC ratios ⩾ 1185 for C. parapsilosis. At the maintenance dose AUC24/MIC ratios were lower than the fungistatic target AUC24/MIC ratios ⩾ 559 for C. parapsilosis, which might lead to the failure of preventive treatment.

[3] = system: C. glabrata; settings: ref Pfaller et al.; cited from earlier work
Experimental: Table 4 The area under the concentration-time curve (AUC)/minimal inhibitory concentration (MIC) target probability of target attainment (PTA) values(%) against Candida albicans, Candida glabrata, and Candida parapsilosis for caspofungin in pediatric patients. | column: AUC/MIC target PTA(%) / C. glabrata MIC90 = 0.06 mg/L / Fungistatic target || Two simulation procedures were performed to calculate the probability of PK/PD target attainment with different dosing regimens based on the final model. One of the procedure is fixed MIC value of Candida app. to simulated the clinical efficacy of the different drug regimens of caspofungin in infants, children (age 2–11 years), and adolescents (age 12–14 years). According to the literature report, the MIC90 value for C. albicans, C. glabrata, and C. parapsilosis are 0.03, 0.06, and 0.5 mg/L ([Pfaller et al.]). Another simulation procedure is not fixed MIC values. The loading doses of caspofung ...

[4] = system: C. albicans; settings: ref Pfaller et al.; cited from earlier work
Experimental: Table 4 The area under the concentration-time curve (AUC)/minimal inhibitory concentration (MIC) target probability of target attainment (PTA) values(%) against Candida albicans, Candida glabrata, and Candida parapsilosis for caspofungin in pediatric patients. | column: AUC/MIC target PTA(%) / C. albicans MIC90 = 0.04 mg/L / Fungistatic target || Two simulation procedures were performed to calculate the probability of PK/PD target attainment with different dosing regimens based on the final model. One of the procedure is fixed MIC value of Candida app. to simulated the clinical efficacy of the different drug regimens of caspofungin in infants, children (age 2–11 years), and adolescents (age 12–14 years). According to the literature report, the MIC90 value for C. albicans, C. glabrata, and C. parapsilosis are 0.03, 0.06, and 0.5 mg/L ([Pfaller et al.]). Another simulation procedure is not fixed MIC values. The loading doses of caspofung ...

[5] = system: invasive fungal infections (IFI); assay: Clinical outcome of caspofungin prophylaxis for fungal infections during HSCT; assay type: in vivo, human
Experimental: as §1
In this study, 48 patients received caspofungin (loading dose of 70 mg/m^2 followed by 50 mg/m^2) as prophylaxis for fungal infections for a period of HSCT. The diagnosis of IFI mainly relied on a chest computed tomography (CT), clinical symptoms, blood culture, G test, and GM test. Patients were considered a probable IFI case with a chest CT scan positive for a halo or air crescent sign and large mass flocculent shadow. Routine blood culture, as long as the patients who receive bronchoscopy are all sent to receive bronchoalveolar lavage fluid culture meanwhile high throughput sequencing to find the pathogenic bacteria. […] The culture of bronchoalveolar lavage fluid was negative in three cases for consecutive two times and positive for C. parapsilosis in one case that was identified as C. parapsilosis infection (MIC = 0.5 mg/L). […]

[6] = median, children 2–12 years old, two-compartment model; ref Yang et al., 2019; cited from earlier work
From the text: Others reported weight and disease state had significant effects on caspofungin PKs in pediatric patients ([Li et al., 2011]). Xin-Mei Yang studied the PK of caspofungin in children (2–12 years old).

[7] = system: C. parapsilosis; settings: ref Pfaller et al.; cited from earlier work
Experimental: Table 4 The area under the concentration-time curve (AUC)/minimal inhibitory concentration (MIC) target probability of target attainment (PTA) values(%) against Candida albicans, Candida glabrata, and Candida parapsilosis for caspofungin in pediatric patients. | column: AUC/MIC target PTA(%) / C. parapsilosis MIC90 = 0.5 mg/L / Fungistatic target || Two simulation procedures were performed to calculate the probability of PK/PD target attainment with different dosing regimens based on the final model. One of the procedure is fixed MIC value of Candida app. to simulated the clinical efficacy of the different drug regimens of caspofungin in infants, children (age 2–11 years), and adolescents (age 12–14 years). According to the literature report, the MIC90 value for C. albicans, C. glabrata, and C. parapsilosis are 0.03, 0.06, and 0.5 mg/L ([Pfaller et al.]). Another simulation procedure is not fixed MIC values. The loading doses of caspofung ...

[8] = system: C. albicans; settings: ref Andes et al., 2010; cited from earlier work
From the text: (§2) The likely success of treatment identified with the probability of target attainment (PTA) by comparing the pharmacodynamic exposure against an minimal inhibitory concentration (MIC) distribution. […] A PK/PD target was defined as the ratio AUC24/MIC for candidiasis. […] Fungistatic ...

[9] = system: C. glabrata; settings: ref Andes et al., 2010; cited from earlier work
From the text: as §2

[10] = Bayesian estimates, mean ± SD, all children, SD
[11] = patients with mild liver dysfunction (40 U/L < AST ⩽ 120 U/L)
[12] = patients with normal liver function

CC[C@H](C)C[C@H](C)CCCCCCCCC(=O)N[C@H]1C[C@@H](O)[C@@H](NCCN)NC(=O)[C@@H]2[C@@H](O)CCN2C(=O)[C@H]([C@H](O)CCN)NC(=O)[C@H]([C@H](O)[C@@H](O)c2ccc(O)cc2)NC(=O)[C@@H]2C[C@@H](O)CN2C(=O)[C@H]([C@@H](C)O)NC1=O [caspofungin, Caspofungin]
θ1 Bootstrap analysis Median Estimate ([1]; 1,000-run bootstrap): 0.91
θ2 Bootstrap analysis Median Estimate ([1]; 1,000-run bootstrap): −0.25
BSA-normalized CL [1, 10]: 0.19 ± 0.04 L/m^2/h
BSA-normalized Vd [1, 10]: 1.72 ± 0.01 L/m^2
BSA-normalized CL ([1]; adolescents, age 12–14 years, two severe liver dysfunction patients excluded): 0.178 ± 0.039 L/m^2/h
BSA-normalized CL ([1]; children, age 2–11 years, two severe liver dysfunction patients excluded): 0.187 ± 0.031 L/m^2/h
θ1 (exponent for BSA as covariate) Final model Estimate ([1]; final PopPK model): 0.89
θ2 (exponent for lnAST as covariate for CL) Final model Estimate ([1]; final PopPK model): −0.23
AUC(0-t) ([1]; 50 mg/m2, failed cases group, at the maintenance dose (50 mg/m^2), SD): 248 ± 33.7 µg·h/mL
AUC(0-t) ([1]; 50 mg/m2, successful cases group, at the maintenance dose (50 mg/m^2), SD): 300 ± 88.3 µg·h/mL
AUC(0-t) ([1]; 70 mg/m2, failed cases group, at the loading dose (70 mg/m^2), SD): 352 ± 24.4 µg·h/mL
AUC(0-t) ([1]; 70 mg/m2, successful cases group, at the loading dose (70 mg/m^2), SD): 395 ± 91.1 µg·h/mL
clearance [1, 11]: 1.95 mL/min
clearance [1, 12]: 2.67 mL/min
BSA-normalized CL ([1]; infants, two severe liver dysfunction patients excluded): 0.190 ± 0.015 L/m^2/h
θVd (L) Final model Estimate ([1]; one-compartment PopPK model, typical value, 48 children with allo-HSCT, Vd = 1.36 × (BSA/0.79)): 1.36 L
θCL (L·h^−1) Final model Estimate ([1]; one-compartment PopPK model, typical value, CL = 0.14 × (BSA/0.79)^0.89 × (lnAST/3.38)^−0.23): 0.14 L/h
estimated BSA-normalized CL [1, 11]: 0.179 ± 0.03 L/m^2/h
estimated BSA-normalized CL [1, 12]: 0.188 ± 0.03 L/m^2/h
MIC [2]: 0.5 µg/mL
MIC90 [3]: 0.06 µg/mL (≈ 0.0549 µM)
MIC90 [4]: 0.03 µg/mL (≈ 0.0274 µM)
drug-related adverse events ([5]; 48 caspofungin recipients, standard-dose): we did not find drug-related adverse events
patients with prophylaxis (favorable) outcome ([5]; 48 children with allo-HSCT, loading dose 70 mg/m^2 followed by 50 mg/m^2): 92%
CL [6]: 0.21 L/h/m^2
central volume distribution [6]: 2.23 L/m^2
MIC90 [7]: 0.5 µg/mL (≈ 0.457 µM)
Fungicidal target AUC24/MIC ratio [8]: 865
Fungistatic target AUC24/MIC ratio [8]: 748
Fungicidal target AUC24/MIC ratio [9]: 450
Fungistatic target AUC24/MIC ratio [9]: 96.2
